Experimental data taken from ChEMBL document CHEMBL6127158, “Novel Aminopyrazole Inhibitors of PDE11A for the Treatment of Alzheimer's Disease and Other Types of Dementia” (ACS Med Chem Lett, 2024).
Activity calls are given as the source filed them. No cut-off for these calls is given here.

Target: Dual 3',5'-cyclic-AMP and -GMP phosphodiesterase 11A (Homo sapiens) (UniProt Q9HCR9)
Test: Inhibition of recombinant N-terminal GST-tagged human PDE11A4 (1 to 943 residues) expressed in Sf9 cells at 500 nM using cGMP and cAMP as substrates by Ba(OH)2 precipitation method relative to control

Chain of Dual 3',5'-cyclic-AMP and -GMP phosphodiesterase 11A (Homo sapiens) (Q9HCR9 whole entry, looked up, the tested form may be a part): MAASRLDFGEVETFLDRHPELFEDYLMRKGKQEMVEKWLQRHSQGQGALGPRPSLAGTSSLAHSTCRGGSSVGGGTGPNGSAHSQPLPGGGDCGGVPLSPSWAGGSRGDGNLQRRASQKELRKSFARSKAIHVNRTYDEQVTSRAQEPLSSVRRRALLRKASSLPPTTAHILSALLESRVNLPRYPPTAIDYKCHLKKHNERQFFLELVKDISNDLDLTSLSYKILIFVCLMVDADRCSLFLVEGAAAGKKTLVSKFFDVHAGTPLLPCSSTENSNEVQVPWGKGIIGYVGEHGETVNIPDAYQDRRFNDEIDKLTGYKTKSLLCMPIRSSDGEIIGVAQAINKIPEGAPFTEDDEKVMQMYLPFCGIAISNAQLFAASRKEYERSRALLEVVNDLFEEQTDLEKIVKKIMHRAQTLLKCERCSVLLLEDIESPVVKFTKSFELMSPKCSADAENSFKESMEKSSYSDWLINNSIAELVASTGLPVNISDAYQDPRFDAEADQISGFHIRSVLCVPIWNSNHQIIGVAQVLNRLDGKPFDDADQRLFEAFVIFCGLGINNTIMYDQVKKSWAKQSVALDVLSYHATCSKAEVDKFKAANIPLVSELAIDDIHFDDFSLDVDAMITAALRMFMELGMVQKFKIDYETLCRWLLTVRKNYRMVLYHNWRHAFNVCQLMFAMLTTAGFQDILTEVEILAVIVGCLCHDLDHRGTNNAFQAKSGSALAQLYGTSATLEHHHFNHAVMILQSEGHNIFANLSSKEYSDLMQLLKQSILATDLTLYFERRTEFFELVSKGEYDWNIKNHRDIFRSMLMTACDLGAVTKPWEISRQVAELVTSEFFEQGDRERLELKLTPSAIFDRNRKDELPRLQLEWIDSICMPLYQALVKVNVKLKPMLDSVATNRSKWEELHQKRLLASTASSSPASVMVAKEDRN

Compound | inhibition
Cc1nn(-c2ccccc2)c2nc(-c3cccs3)cc(C(=O)N3CCCC3)c12 | 1%
CCN(CC)C(=O)c1cc(-c2ccnn2C)nc2c1c(C)nn2-c1ccc(Cl)c(F)c1 | 51%
CCN(CC)C(=O)c1ccnc2c1c(C)nn2-c1ccccc1 | inactive
